Measurements reported in ChEMBL document CHEMBL3351674, “Novel polycarboxylate porphyrins: synthesis, characterization, photophysical properties and preliminary antimicrobial study against Gram-positive bacteria” (Bioorg Med Chem Lett, 2015).
Activity calls are given as the source filed them. The rule behind the calls is not given here.

Experiments:
[1] = 2-octanol-aqueous buffer partition coefficient, logP of the compound at pH 7.4; format: physicochemical
[2] = Photostability of the compound in nitrogen-saturated phosphate buffer solution under 2.5 mW/cm'2 white light; format: physicochemical
Staphylococcus aureus = assay: Antibacterial activity against Staphylococcus aureus assessed as decrease in cell viability at > 50 uM after 30 mins under 2.5 mW/cm'2 white light by confocal microscopy/UV-diode laser method; format: functional, organism-based
Bacillus cereus = assay: Antibacterial activity against Bacillus cereus assessed as decrease in cell viability at > 50 uM after 30 mins under 2.5 mW/cm'2 white light by confocal microscopy/UV-diode laser method; format: functional, organism-based
[3] = Photostability of the compound in air-saturated phosphate buffer solution under 2.5 mW/cm'2 white light; format: physicochemical

logD [1] | Stability [2] | Stability [3] | SMILES | Activity (Staphylococcus aureus) | Activity (Bacillus cereus)
-2.17 | Stable | Unstable | O=C(O)COc1cc(OCC(=O)O)c(-c2c3nc(c(-c4ccc(C(=O)O)cc4)c4ccc([nH]4)c(-c4c(OCC(=O)O)cc(OCC(=O)O)cc4OCC(=O)O)c4nc(c(-c5ccc(C(=O)O)cc5)c5ccc2[nH]5)C=C4)C=C3)c(OCC(=O)O)c1 | Active | inactive
1.66 | – | – | CC(C)(C)OC(=O)COc1cc(OCC(=O)OC(C)(C)C)c(-c2c3nc(c(-c4ccc(C(=O)O)cc4)c4ccc([nH]4)c(-c4c(OCC(=O)OC(C)(C)C)cc(OCC(=O)OC(C)(C)C)cc4OCC(=O)OC(C)(C)C)c4nc(c(-c5ccc(C(=O)O)cc5)c5ccc2[nH]5)C=C4)C=C3)c(OCC(=O)OC(C)(C)C)c1 | – | –
-0.77 | Stable | Unstable | Cc1cc(C)c(-c2c3nc(c(-c4c(OCC(=O)O)cc(OCC(=O)O)cc4OCC(=O)O)c4ccc([nH]4)c(-c4c(C)cc(C)cc4C)c4nc(c(-c5c(OCC(=O)O)cc(OCC(=O)O)cc5OCC(=O)O)c5ccc2[nH]5)C=C4)C=C3)c(C)c1 | Active | Active
